Data on nine compounds can be found in patent publication US11040981B2, “Pyrrolotriazine compounds and methods of inhibiting TAM kinases” (Syros Pharmaceuticals, Inc., priority 2017, dated 2021).

Each structure is given as a SMILES string. Where only a bound is given, the exact number is not on record here.

What is called IC50 is the point on the concentration scale where inhibition reaches its midpoint. A higher IC50 goes with a need for much substance.

One assay concerns the target T1, TYRO3 (Homo sapiens, UniProt Q06418).
T1 sequence (Q06418 41-890): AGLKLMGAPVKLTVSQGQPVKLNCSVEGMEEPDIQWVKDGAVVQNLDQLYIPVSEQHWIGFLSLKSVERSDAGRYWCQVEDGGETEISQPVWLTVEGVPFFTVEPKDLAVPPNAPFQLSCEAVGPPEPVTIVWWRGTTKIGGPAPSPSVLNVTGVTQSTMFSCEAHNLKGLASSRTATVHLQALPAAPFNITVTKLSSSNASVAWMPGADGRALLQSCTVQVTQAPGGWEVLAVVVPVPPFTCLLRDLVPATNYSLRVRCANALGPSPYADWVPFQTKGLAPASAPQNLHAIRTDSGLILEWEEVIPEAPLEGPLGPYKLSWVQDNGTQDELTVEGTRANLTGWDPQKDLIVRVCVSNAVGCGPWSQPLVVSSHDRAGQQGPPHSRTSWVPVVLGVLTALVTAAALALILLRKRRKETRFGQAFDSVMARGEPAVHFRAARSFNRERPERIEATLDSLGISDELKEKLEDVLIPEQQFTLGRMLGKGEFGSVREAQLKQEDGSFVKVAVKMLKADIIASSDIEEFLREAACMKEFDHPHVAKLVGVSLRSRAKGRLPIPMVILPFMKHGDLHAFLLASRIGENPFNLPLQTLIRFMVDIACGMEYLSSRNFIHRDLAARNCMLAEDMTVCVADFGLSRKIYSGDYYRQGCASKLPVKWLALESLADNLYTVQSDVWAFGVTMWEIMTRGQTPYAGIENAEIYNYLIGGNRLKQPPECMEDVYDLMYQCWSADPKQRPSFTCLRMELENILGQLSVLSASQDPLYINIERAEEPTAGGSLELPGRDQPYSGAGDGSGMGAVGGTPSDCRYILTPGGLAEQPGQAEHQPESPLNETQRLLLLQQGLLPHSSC
As to the kind of experiment: TR-FRET kinase activity assay, TYRO3. In kind it is biochemical. The settings on record: ATP at Km, 60 minutes. The gist of the method: (§1)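 Recombinant human kinases, fluorescent peptide substrate, ATP at Km; 1 h RT, pH 7.5. EDTA-quenched, Eu antibody added, TR-FRET read; IC50 determined.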
A general note: TR-FRET usually uses a lanthanide donor and a delayed reading to cut background.

Another assay deals with T2, AXL (Homo sapiens, UniProt P30530).
T2 sequence (P30530 26-894): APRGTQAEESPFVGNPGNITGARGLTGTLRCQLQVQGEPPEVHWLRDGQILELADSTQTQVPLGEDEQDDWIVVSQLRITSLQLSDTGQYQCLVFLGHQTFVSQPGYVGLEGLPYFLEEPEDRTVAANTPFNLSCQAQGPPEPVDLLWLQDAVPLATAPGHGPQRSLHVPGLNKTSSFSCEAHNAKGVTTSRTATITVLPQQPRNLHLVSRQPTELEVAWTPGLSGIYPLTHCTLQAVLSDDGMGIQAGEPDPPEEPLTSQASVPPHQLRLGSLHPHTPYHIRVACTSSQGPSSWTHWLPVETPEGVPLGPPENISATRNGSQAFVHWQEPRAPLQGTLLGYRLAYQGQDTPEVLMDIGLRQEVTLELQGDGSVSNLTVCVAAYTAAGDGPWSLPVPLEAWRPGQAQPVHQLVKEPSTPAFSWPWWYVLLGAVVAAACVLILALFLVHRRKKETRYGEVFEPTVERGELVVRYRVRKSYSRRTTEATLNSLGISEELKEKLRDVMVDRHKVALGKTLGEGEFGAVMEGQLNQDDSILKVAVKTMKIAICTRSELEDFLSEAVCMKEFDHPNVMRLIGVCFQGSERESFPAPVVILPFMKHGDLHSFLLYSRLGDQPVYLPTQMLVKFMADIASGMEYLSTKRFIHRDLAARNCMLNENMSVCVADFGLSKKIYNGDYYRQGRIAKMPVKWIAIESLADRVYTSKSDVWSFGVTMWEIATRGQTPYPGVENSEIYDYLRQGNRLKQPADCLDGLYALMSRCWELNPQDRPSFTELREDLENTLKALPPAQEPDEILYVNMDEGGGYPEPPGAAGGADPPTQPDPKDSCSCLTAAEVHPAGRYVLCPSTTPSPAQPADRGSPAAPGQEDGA
As to the kind of experiment: TR-FRET kinase activity assay, AXL. The class given is biochemical. The settings on record: ATP at Km, 60 minutes. The gist of the method: as §1

With `CCCCC[C@H](C)Nc1ncc2c(-c3ccc(S(=O)(=O)N4CCOCC4)cc3)cc([C@H]3CC[C@@H](O)CC3)n2n1` [Compound 103, (1R,4s)-4-(2-((S)-heptan-2-ylamino)-5-(4-(morpholinosulfonyl)phenyl)pyrrolo[2,1-f][1,2,4]triazin-7-yl)cyclohexanol], the concentration for half-maximal inhibition (IC50) at TYRO3 and against AXL was 100 to 1000 nM in each case.

For the compound `COCC(C)Nc1ncc2c(-c3ccc(C4(N5CCN(C)CC5)CC4)cc3)cc(C3CCC(O)CC3)n2n1` (stereo not drawn) [Compound 185], the 50% inhibitory concentration (IC50) against TYRO3 and at AXL was no more than 100 nM in each case.

For the compound `COC[C@H](C)Nc1ncc2c(-c3cn(C)cn3)cc([C@H]3CC[C@H](O)CC3)n2n1` [Compound 186], the IC50 against TYRO3 was no more than 100 nM; against AXL it was 100 to 1000 nM.

With `COC[C@H](C)Nc1ncc2c(-c3ccc(C(=O)N4CCOCC4)cc3)cc([C@H]3CC[C@H](O)CC3)n2n1` [Compound 187, (4-(7-((trans)-4-hydroxycyclohexyl)-2-(((S)-1-methoxypropan-2-yl)amino)pyrrolo[2,1-f][1,2,4]triazin-5-yl)phenyl)(morpholino)methanone], the IC50 at TYRO3 and at AXL was no more than 100 nM throughout.

`C[C@@H](COC(F)F)Nc1ncc2c(-c3ccc(CN4CCOCC4)cc3)cc([C@H]3CC[C@H](O)CC3)n2n1` [Compound 188]: the IC50 against TYRO3 and against AXL was no more than 100 nM throughout.

Consider `CC(CC1CC1)Nc1ncc2c(-c3ccc(CN4CCOCC4)cc3)cc(C3CCC(O)CC3)n2n1` (stereo not drawn) [Compound 189], for which the IC50 against TYRO3 and against AXL was no more than 100 nM in each case.

On to `Cc1cc(-c2cc(C3CCC(O)CC3)n3nc(NC(C)CC4CC4)ncc23)ccn1` (stereo not drawn) [Compound 190], for which the IC50 at TYRO3 and against AXL was no more than 100 nM throughout.

With `COCC(C)Nc1ncc2c(C3CC4CCC(C3)N4C)cc(C3CCC(O)CC3)n2n1` (stereo not drawn) [Compound 191], the IC50 was no more than 100 nM at TYRO3 and 100 to 1000 nM against AXL.

Consider `COCC(C)Nc1ncc2c(N3CCOCC3=O)cc(C3CCC(O)CC3)n2n1` (stereo not drawn) [Compound 192], for which the IC50 against TYRO3 and at AXL was 1000 to 10000 nM each time.
